Here are results for 22 compounds from ChEMBL document CHEMBL1154592, “Triazine and pyrimidine based ROCK inhibitors with efficacy in spontaneous hypertensive rat model” (Bioorg Med Chem Lett, 2009).

Test [1] addresses Rho-associated protein kinase 1 (Homo sapiens, UniProt Q13464). In words: Inhibition of ROCK1 by IMAP assay.
The test system of test [2] is Rattus norvegicus. In words: Decrease in mean arterial blood pressure in spontaneous hypertensive rat model at 30 mg/kg, sc. Format: functional, organism-based. The following applies: Artery. Also on record: dose 30 mg/kg.
For test [3], the system named is Rattus norvegicus. In words: Decrease in mean arterial blood pressure in spontaneous hypertensive rat model at 10 mg/kg, sc. In kind it is functional, organism-based. Set-up: dose 10 mg/kg. The following applies: Artery.
For test [4], the target named is Serine/threonine-protein kinase Nek2 (Homo sapiens) (UniProt P51955). In words: Inhibition of NEK2 at 2 uM.
Test [5] has as its target Aurora kinase A (Homo sapiens) (UniProt O14965). In words: Inhibition of AuroraA at 2 uM.
The target of test [6] is Tyrosine-protein kinase ZAP-70 (Homo sapiens) (UniProt P43403). The test can be described thus: Inhibition of Zap70 at 2 uM.
The target in test [7] is Hepatocyte growth factor receptor (Homo sapiens) (UniProt P08581). The test can be described thus: Inhibition of Met at 2 uM.
A short description of test [8]: Inhibition of CK2 at 2 uM.
For test [9], the target named is Tyrosine-protein kinase Lck (Homo sapiens) (UniProt P06239). The test can be described thus: Inhibition of LCK at 2 uM.
The target of test [10] is Tyrosine-protein kinase CSK (Homo sapiens) (UniProt P41240). The test can be described thus: Inhibition of CSK at 2 uM.
Test [11] can be described thus: Inhibition of MAPK at 2 uM.
Test [12] addresses Insulin receptor (Homo sapiens) (UniProt P06213). In words: Inhibition of IR at 2 uM.
Test [13] concerns the target RAF proto-oncogene serine/threonine-protein kinase (Homo sapiens) (UniProt P04049). The test can be described thus: Inhibition of cRAF at 2 uM.
In test [14] the target is Glycogen synthase kinase-3 beta (Homo sapiens) (UniProt P49841). In words: Inhibition of GSK3-beta at 2 uM.
Test [15] has as its target Proto-oncogene tyrosine-protein kinase Src (Homo sapiens) (UniProt P12931). The test can be described thus: Inhibition of cSRC at 2 uM.
Test [16] addresses Casein kinase I isoform delta (Homo sapiens) (UniProt P48730). The test can be described thus: Inhibition of CK1delta at 2 uM.
Test [17] concerns Rattus norvegicus. In words: Decrease in mean arterial blood pressure in spontaneous hypertensive rat model at 3 mg/kg, sc. In kind it is functional, organism-based. Also on record: dose 3 mg/kg. To be noted: Artery.
The target in test [18] is MAP kinase-activated protein kinase 2 (Homo sapiens) (UniProt P49137). In words: Inhibition of MAPK2 at 2 uM.
Test [19] addresses Ribosomal protein S6 kinase alpha-3 (Homo sapiens) (UniProt P51812). In words: Inhibition of Rsk2 at 2 uM.
For test [20], the target named is Platelet-derived growth factor receptor beta (Homo sapiens) (UniProt P09619). The test can be described thus: Inhibition of PDGFRbeta at 2 uM.
In test [21] the target is Serine/threonine-protein kinase PAK 2 (Homo sapiens) (UniProt Q13177). In words: Inhibition of PAK2 at 2 uM.
Test [22] addresses Epidermal growth factor receptor (Homo sapiens) (UniProt P00533). In words: Inhibition of EGFR at 2 uM.
Test [23] deals with Serine/threonine-protein kinase Chk1 (Homo sapiens) (UniProt O14757). The test can be described thus: Inhibition of CHK1 at 2 uM.
Test [24] addresses BDNF/NT-3 growth factors receptor (Homo sapiens) (UniProt Q16620). In words: Inhibition of TRKbeta at 2 uM.
Test [25] deals with Serine/threonine-protein kinase STK11 (Homo sapiens) (UniProt Q15831). In words: Inhibition of LKB1 at 2 uM.
Test [26] deals with Cyclin-dependent kinase 2 (Homo sapiens) (UniProt P24941). In words: Inhibition of CDK2 at 2 uM.
The target in test [27] is Calcium/calmodulin-dependent protein kinase type IV (Homo sapiens) (UniProt Q16566). The test can be described thus: Inhibition of CaMK4 at 2 uM.
The target of test [28] is Dual specificity mitogen-activated protein kinase kinase 1 (Homo sapiens) (UniProt Q02750). In words: Inhibition of MEK1 at 2 uM.

As a reminder, the IC50 is the midpoint of a concentration-inhibition curve. Read a low IC50 as greater potency. For orientation: inhibition means the drop in the measured response relative to a control, in per cent.

The source made the active and inactive calls. The calls are words filed in the database; no cut-off is given here.

Rho-associated protein kinase 1, sequence (Q13464 whole entry): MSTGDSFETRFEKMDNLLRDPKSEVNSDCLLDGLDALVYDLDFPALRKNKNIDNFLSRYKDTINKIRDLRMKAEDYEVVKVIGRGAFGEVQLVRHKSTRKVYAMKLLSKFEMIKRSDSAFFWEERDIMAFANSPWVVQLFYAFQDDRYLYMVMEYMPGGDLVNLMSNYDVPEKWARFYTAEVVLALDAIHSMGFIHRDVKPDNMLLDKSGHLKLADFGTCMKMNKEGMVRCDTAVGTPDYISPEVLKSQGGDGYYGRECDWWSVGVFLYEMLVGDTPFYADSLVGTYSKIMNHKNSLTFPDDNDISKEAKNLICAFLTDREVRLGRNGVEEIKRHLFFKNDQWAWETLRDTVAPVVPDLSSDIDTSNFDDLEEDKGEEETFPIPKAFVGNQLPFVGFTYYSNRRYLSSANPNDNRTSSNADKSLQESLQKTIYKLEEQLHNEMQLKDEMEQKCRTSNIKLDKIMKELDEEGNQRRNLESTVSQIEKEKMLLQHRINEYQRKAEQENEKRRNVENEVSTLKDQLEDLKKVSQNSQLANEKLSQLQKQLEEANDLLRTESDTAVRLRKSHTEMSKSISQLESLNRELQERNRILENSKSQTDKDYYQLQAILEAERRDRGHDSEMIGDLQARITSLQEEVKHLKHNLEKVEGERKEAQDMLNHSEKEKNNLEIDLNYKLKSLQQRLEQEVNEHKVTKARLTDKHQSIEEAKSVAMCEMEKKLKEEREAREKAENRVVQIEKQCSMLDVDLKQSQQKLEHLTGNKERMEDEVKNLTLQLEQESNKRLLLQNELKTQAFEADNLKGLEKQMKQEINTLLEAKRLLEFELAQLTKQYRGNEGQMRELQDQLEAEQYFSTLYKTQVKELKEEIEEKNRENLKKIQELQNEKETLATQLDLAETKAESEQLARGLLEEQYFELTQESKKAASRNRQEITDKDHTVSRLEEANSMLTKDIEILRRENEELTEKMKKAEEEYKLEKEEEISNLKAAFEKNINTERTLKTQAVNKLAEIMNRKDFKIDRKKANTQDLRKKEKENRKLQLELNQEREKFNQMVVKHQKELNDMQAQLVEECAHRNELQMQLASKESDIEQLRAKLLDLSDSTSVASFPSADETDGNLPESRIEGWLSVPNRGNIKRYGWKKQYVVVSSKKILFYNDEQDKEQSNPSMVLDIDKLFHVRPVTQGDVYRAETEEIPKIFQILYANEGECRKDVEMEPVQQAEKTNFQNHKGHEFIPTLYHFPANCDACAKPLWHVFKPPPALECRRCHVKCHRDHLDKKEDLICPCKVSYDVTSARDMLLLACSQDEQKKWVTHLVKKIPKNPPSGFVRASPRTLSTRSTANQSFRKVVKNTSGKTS
Platelet-derived growth factor receptor beta (Homo sapiens), sequence (P09619 whole entry): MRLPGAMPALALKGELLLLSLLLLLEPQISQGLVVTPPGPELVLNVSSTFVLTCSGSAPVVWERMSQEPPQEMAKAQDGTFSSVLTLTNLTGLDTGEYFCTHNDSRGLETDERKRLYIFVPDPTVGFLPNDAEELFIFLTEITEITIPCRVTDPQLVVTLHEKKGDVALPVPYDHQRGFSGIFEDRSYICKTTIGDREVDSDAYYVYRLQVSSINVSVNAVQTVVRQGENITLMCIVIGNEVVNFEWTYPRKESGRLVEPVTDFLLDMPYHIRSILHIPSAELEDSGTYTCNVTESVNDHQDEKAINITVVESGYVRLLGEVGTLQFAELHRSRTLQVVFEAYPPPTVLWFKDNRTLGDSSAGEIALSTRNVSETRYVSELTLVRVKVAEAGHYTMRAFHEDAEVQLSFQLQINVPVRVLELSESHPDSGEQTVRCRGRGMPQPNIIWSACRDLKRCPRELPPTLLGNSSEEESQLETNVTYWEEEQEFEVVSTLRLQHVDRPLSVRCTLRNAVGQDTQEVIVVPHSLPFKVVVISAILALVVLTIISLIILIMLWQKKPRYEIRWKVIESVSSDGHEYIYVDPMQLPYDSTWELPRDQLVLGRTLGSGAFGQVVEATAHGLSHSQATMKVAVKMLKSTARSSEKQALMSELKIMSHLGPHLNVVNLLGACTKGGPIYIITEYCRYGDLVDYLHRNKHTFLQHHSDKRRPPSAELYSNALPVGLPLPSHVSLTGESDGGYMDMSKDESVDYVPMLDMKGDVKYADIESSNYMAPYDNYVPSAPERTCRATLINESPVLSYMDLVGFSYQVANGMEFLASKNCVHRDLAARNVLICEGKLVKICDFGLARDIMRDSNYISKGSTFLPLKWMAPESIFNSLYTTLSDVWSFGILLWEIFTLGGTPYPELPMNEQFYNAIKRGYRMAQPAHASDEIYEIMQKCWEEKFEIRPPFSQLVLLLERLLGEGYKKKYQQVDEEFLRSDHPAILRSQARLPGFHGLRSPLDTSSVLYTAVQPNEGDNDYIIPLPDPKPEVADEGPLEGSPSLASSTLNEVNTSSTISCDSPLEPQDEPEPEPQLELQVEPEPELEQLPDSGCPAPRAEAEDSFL
Calcium/calmodulin-dependent protein kinase type IV (Homo sapiens), sequence (Q16566 whole entry): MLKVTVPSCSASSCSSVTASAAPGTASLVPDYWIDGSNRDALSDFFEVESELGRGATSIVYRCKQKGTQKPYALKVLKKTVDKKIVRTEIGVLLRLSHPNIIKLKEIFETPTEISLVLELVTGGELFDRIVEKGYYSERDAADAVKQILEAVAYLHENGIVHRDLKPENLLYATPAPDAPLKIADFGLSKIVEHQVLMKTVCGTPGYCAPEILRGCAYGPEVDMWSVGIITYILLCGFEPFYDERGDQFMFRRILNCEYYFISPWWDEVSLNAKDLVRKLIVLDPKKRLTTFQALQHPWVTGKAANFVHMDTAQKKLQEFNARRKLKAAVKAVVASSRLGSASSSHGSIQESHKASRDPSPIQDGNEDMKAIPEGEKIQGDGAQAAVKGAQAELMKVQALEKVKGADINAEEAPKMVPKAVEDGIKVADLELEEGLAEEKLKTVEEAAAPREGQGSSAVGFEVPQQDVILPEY
RAF proto-oncogene serine/threonine-protein kinase (Homo sapiens), sequence (P04049 whole entry): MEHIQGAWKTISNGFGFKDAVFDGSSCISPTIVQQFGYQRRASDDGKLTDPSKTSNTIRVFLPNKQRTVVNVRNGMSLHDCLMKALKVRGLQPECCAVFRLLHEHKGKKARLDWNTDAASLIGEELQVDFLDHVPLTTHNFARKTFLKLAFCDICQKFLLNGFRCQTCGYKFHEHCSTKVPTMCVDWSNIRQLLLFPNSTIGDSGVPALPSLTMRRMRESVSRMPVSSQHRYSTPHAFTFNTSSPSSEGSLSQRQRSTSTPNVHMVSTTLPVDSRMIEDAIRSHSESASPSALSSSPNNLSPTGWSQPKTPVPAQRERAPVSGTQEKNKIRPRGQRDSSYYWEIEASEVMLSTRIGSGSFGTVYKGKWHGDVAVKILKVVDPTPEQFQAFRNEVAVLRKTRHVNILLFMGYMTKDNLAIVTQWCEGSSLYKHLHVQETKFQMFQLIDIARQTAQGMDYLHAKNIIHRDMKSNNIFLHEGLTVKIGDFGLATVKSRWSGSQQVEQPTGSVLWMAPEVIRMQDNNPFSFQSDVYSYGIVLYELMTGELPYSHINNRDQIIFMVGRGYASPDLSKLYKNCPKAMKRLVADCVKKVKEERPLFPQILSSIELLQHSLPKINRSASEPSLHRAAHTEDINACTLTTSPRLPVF
MAP kinase-activated protein kinase 2 (Homo sapiens), sequence (P49137 whole entry, looked up): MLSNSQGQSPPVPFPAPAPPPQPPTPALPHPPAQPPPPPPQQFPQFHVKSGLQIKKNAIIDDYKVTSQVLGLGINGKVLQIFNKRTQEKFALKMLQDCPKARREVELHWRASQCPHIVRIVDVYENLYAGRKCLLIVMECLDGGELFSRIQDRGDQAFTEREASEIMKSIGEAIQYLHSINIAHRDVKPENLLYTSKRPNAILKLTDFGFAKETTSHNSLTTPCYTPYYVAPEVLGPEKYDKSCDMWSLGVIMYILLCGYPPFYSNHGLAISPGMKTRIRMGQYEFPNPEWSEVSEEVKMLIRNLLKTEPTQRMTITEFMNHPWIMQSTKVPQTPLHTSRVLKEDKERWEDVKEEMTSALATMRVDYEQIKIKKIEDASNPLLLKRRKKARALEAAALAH
Serine/threonine-protein kinase PAK 2 (Homo sapiens), sequence (Q13177 whole entry): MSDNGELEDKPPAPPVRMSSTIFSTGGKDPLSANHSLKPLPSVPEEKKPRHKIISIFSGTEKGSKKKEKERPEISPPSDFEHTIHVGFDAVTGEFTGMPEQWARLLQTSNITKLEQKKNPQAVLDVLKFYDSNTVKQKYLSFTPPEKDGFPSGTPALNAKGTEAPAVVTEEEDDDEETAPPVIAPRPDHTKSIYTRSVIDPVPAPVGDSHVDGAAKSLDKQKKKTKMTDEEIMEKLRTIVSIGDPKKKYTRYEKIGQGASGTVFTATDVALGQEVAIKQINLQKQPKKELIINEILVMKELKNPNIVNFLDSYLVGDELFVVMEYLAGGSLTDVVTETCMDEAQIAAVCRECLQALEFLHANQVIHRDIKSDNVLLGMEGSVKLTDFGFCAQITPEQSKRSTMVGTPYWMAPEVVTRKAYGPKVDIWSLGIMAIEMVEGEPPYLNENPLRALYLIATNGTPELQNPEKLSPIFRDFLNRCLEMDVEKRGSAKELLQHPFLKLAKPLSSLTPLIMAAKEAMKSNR
Proto-oncogene tyrosine-protein kinase Src (Homo sapiens), sequence (P12931 2-536 limits assumed): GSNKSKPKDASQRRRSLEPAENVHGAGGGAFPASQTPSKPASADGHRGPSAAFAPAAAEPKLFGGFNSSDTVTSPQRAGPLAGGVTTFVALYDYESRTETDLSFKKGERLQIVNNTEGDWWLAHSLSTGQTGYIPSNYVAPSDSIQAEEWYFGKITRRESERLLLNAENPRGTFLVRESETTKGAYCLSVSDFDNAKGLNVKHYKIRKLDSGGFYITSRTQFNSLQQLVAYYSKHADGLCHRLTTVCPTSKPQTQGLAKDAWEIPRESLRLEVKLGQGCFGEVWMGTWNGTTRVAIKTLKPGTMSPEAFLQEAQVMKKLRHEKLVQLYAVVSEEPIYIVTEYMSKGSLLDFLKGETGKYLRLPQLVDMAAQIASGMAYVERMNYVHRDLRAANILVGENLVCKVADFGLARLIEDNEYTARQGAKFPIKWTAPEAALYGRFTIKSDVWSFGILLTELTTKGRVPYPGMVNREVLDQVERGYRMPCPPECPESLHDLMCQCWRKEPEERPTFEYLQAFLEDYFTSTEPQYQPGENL

As to `CN1CCN(c2nc(Nc3ccncc3)nc(NC3Cc4ccccc4C3)n2)CC1`, the IC50 in test [1] turned out to be 305 nM.

For `c1ccc2c(c1)CC(Nc1nc(Nc3ccncc3)cc(N3CCNCC3)n1)C2`, the IC50 in test [1] turned out to be 1200 nM.

Consider `c1ccc(Nc2nc(NC3Cc4ccccc4C3)nc(N3CCNCC3)n2)nc1`, for which the IC50 in [1] was 1000 nM.

Regarding `c1ccc(CCNc2nc(Nc3ccncc3)nc(N3CCNCC3)n2)cc1`, 326 nM corresponded to half-maximal inhibition in test [1] (IC50).

In the case of `c1cncc(Nc2nc(NC3Cc4ccccc4C3)nc(N3CCNCC3)n2)c1`, in test [1], the IC50 is 8400 nM.

In the case of `c1ccc2c(c1)CC(Oc1nc(Nc3ccncc3)nc(N3CCNCC3)n1)C2`, the IC50 in test [1] was 8 nM. Against the preceding compound, the IC50 is about 1000-fold lower.

In test [1], `c1ccc(CNc2nc(Nc3ccncc3)nc(N3CCNCC3)n2)cc1` came in with an IC50 of 400 nM.

With `C[C@@H]1CN(c2nc(Nc3ccncc3)nc(NC3Cc4ccccc4C3)n2)CCN1`, the IC50 in [1] was determined as 8 nM. This IC50 is about 50-fold lower than that of the compound before.

As for `C[C@@H](N)[C@H]1CC[C@H](C(=O)Nc2ccncc2)CC1`, the outcome in the test with Rattus norvegicus [2] was Active.

Take `C[C@H]1CNCCN1c1nc(Nc2ccncc2)nc(NC2Cc3ccccc3C2)n1`: in [1], the IC50 came to 87 nM.

For the compound `c1ccc2c(c1)CC(Nc1nc(Nc3ccncc3)nc(N3CCNCC3)n1)C2`, the result in the test with Rattus norvegicus [3] and in the test on Rattus norvegicus [17] was Active. In addition, the inhibition in test [4], in test [5], in test [6], in test [7], in [8] and in test [9] was below 50% throughout. Besides, the inhibition in [10], in test [11], in test [12], in [13], in test [14] and in test [15] was below 50% throughout. The inhibition in [16], in test [18], in [19], in test [20], in test [21] and in [22] was below 50% in each case. The inhibition in test [23], in [24], in test [25], in [26], in test [27] and in [28] was below 50% each time. Further, the midpoint of inhibition in [1], the IC50, lay at 6 nM.

Compound `c1ccc(Nc2nc(NC3Cc4ccccc4C3)nc(N3CCNCC3)n2)cc1` yielded an IC50 in test [1] of 7400 nM.

In turn, `CNCCN(C)c1nc(Nc2ccncc2)nc(NC2Cc3ccccc3C2)n1` had an IC50 in [1] of 81 nM.

Compound `c1ccc2c(c1)CCC2Nc1nc(Nc2ccncc2)nc(N2CCNCC2)n1` (stereo not drawn) returned an IC50 in [1] of 185 nM. Against the preceding compound, the IC50 is about 2.3-fold higher.

On to `c1ccc2c(c1)CC(Nc1cc(Nc3ccncc3)nc(N3CCNCC3)n1)C2`, for which the IC50 in [1] worked out at 2 nM.

In turn, `c1ccc2c(c1)CC(Nc1nc(Nc3ccncc3)nc(N3CCCNCC3)n1)C2` yielded an IC50 in test [1] of 11 nM.

Take `c1ccc2c(c1)CC(Nc1nc(Nc3ccncc3)nc(N3CCCCC3)n1)C2`: the IC50 in [1] stood at 8300 nM.

The compound `C[C@@H]1CNCCN1c1nc(Nc2ccncc2)nc(NC2Cc3ccccc3C2)n1` registered an IC50 in test [1] of 118 nM.

Compound `c1cc(Nc2nc(NC3CCCC3)nc(N3CCNCC3)n2)ccn1` showed a concentration for half-maximal inhibition (IC50) in test [1] of 890 nM. This IC50 lies about 7.5-fold higher than the previous one.

In test [1], `c1ccc2c(c1)CCC(Nc1nc(Nc3ccncc3)nc(N3CCNCC3)n1)C2` (stereo not drawn) yielded an IC50 of 23 nM.

In the case of `c1ccc2c(c1)CC(Nc1cc(N3CCNCC3)nc(Nc3ccncc3)n1)C2`, inhibition in test [1] was half-maximal at 14 nM (IC50).

Take `C[C@H]1CN(c2nc(Nc3ccncc3)nc(NC3Cc4ccccc4C3)n2)CCN1`: the IC50 in [1] amounted to 135 nM.
